From US20210353573A1, “A SOFT-GEL CAPSULE FORMULATION, METHOD OF MANUFACTURE AND USE THEREOF” (Chanelle Pharmaceuticals Manufacturing Ltd., priority 2018, published 2021)

Assay: Excipient compatibility studies (glycerol)
Assay type: physicochemical
Conditions: mixture with glycerol
Experimental: Various studies were carried out to determine an appropriate capsule shell formulation.

In the case of ibuprofen lysine [ibuprofen lysinate], the “Compatibility with glycerol (colour change indicating degradation)” value is reported as “turned brownish”.
